According to US5126258A (priority 1988, dated 1992):

Legend:
[1] = tested on: eight monoclonal receptors 21G2, 7E5, 37G2, 13E10, 12C9, 44A2, 17G8 and 22F5; assay: Catalyzed hydrolysis of reactant ligands by the eight QPN1 monoclonal receptors, summary; type: biochemical, mouse; settings: pH 8.0
Protocol: Mice were hyperimmunized with the Compound 13-KLH conjugate over a three to four week time period. Sera were assayed in an ELISA using a Compound 13-BSA conjugate bound to microtiter plate wells as the solid-phase antigen. Cloned hybridomas were also screened using that ELISA assay.
Each of those catalyses could be inhibited by an appropriate analog-ligand. Thus, a relatively high percentage of induced monoclonal receptors was capable of catalyzing an esterolytic reaction. The reason for this relatively high percentage of useful receptors being induced is unknown, but could be due to the presence of phosphonamidate group nitrogen atom, as compared to a phosphonate oxygen atom, or to the quinoline nucleus of the analog-ligand. Those eight catalytic monoclonal receptors and the hybridomas that secrete them are identified by the laboratory designations "QPN1 7E5", "QPN1 12C9", "QPN1 13E10", "QPN1 17G8", "QPN1 21G2", "QPN1 22F5", "QPN1 37G2" and QPN1 44A2. The prefix "QPNI" is sometimes omitted herein when discussing these hybridomas and receptors.
Amide cleavage for Compounds 14 and 15 was assayed by analyzing for the production of free aminoquinaldine or aminonaphthalene by measuring the increase in the azo dye that results from derivatizing the free aminoquinaldine or aminonapthalene with a diazotization reagent.
Catalysis reactions were conducted by preparing a reaction admixture of 100 microliters (ul) total volume containing 5 micromolar (uM) monoclonal antibody, 50-75 uM amide reactant ligand substrate and a buffer described hereinafter. The buffer included in the above admixture varied depending upon the pH utilized as follows: pH 5, 10 […] sodium acetate, 10 mM sodium chloride; pH 7.2, 10 mM sodium phosphate, 0.15 molar (M) sodium chloride; pH 8.0; 50 mM sodium phosphate. The amide-containing substrates screened in this assay were added to the above admixture in 1 ul of a 100-fold concentrated stock solution of dimethyl formamide (DMF). Monoclonal antibody was added to the above admixture from a concentrated stock solution. The resulting admixture was placed into the well of a 96 well flat bottom microtiter plate (Costar, Cambridge, Mass.) and maintained in a moist vapor environment chamber at 23 degrees C. The production of aminoquinaldine or aminonaphthalene was then assayed as described below after 2,3,5, or 6 days.
The aminoquinaldine or aminonapthalene product produced by the catalyzed reaction was measured by first admixing 20 ul of 5M HCl, 80 ul acetone and 10 ul 0.5% (w/v) sodium nitrite to the reaction admixture to form a second admixture and maintaining that second admixture for 3 minutes at room temperature. Thereafter, 10 ul 2.5% (w/v) ammonium sulfamate was added to form a third admixture that was maintained for 2 minutes at room temperature. A still further 10 ul of 0.5% (w/v) N-(1-napthyl)ethylenediamine dihydrochloride was added to form a fourth admixture that was then maintained for 15 minutes at room temperature. Thereafter the resulting azo dye present in the fourth admixture was measured by absorbance spectroscopy at 540 nanometers (nm) for aminoquinaldine using a Model EL 309 Automated Microplate Reader (Bio-Tek Instruments, Winooski, Vt.).

1209 = assay: Hydrolysis of reactant ligands by receptor 12C9 (column head prints 1209); type: biochemical, mouse; design: key to hydrolysis by 1209, symbol: --: No hydrolysis observed; settings: pH 8.0
Protocol: (§1) ^1 Preliminary initial hydrolyses shown as the percentage of admixed
(§2) reactant ligand consumed for catalyzed and spontaneous hydrolyses. "--" =
(§3) No hydrolysis observed. "NT" = Not tried. All reactions were carried out
(§4) at pH 8.0 in a 50 mM phosphate buffer unless otherwise noted. Hydrolytic
(§5) percentages were determined by HPLC using a Hitachi model 655A12 liquid
(§6) chromatograph with a C18 Vydac 201TP54 column, except as noted below.
(§7) Mixtures of acetonitrile a nd water containing 0.1 percent trichloroaceti
(§8) acid [28:72-50:50 (v/v)] were used as elutant. Hydrolyses of Compounds 5
(§9) and 20 were assayed using fluorescence data.
(§10) ^2 Concentrations of receptor molecules (Rec.) and reactant ligands
(§11) (Lig.) in micromolar units, presuming a molecular weight of 150,000
(§12) daltons for each receptor molecule.
(§13) ^3 Reactant ligand (Lig.) used as substrate.
(§14) ^4 Time in hours that the reaction was permitted to take place.
(§15) ^5 Spontaneous hydrolytic percentages for the time period indicated.
(§16) ^6 Reaction carried out at pH 7.2 in a 50 mM phosphate buffer.

21G2 = assay: Hydrolysis of reactant ligands by receptor 21G2; type: biochemical, mouse; design: key to hydrolysis by 21G2, symbol: --: No hydrolysis observed; settings: pH 8.0
Protocol: as §1, §2, §3, §4, §5, §6, §7, §8, §9, §10, §11, §12, §13, §14, §15, §16

37G2 = assay: Hydrolysis of reactant ligands by receptor 37G2; type: biochemical, mouse; design: key to hydrolysis by 37G2, symbol: --: No hydrolysis observed; settings: pH 8.0
Protocol: as §1, §2, §3, §4, §5, §6, §7, §8, §9, §10, §11, §12, §13, §14, §15, §16

[2] = Spontaneous (uncatalyzed, background) hydrolysis; type: physicochemical; design: key to Spon. (spontaneous hydrolysis), symbol: --: No hydrolysis observed
Protocol: The practical range of pH for the assay is limited by the rapid spontaneous rate of hydrolysis of an ester Compound 5 above pH 8.0. Initially, the ester was used at a concentration that was about four-fold greater than that of the protein, and the mixture was incubated at pH 7.2 for 10 minutes. Any change in fluorescence above background was noted.
The lack of spectroscopic distinction between such esters and their hydrolysis products recommended a chromatographic analysis of the process. Referring to FIG. 3, a mixture of Compound 7 (5 uM) and the monoclonal antibody from hybridoma P3 6D4 (0.1 uM) in phosphate buffer (50 mM, pH 8.0) was analyzed over time by high performance liquid chromatography (HPLC). The accelerated hydrolysis of the ester was apparent from the decrease of its peak and the concurrent increase in two new peaks that correspond with the expected products. Under these conditions, the ester is completely consumed in 60-80 minutes during which time the background rate accounts for about 12 to 16 percent hydrolysis. The chromatographic profile is the same as that produced by treatment with hog liver esterase.
^c The rate constants were determined spectrophotometrically (at 245
nm) by measuring initial rates at five concentrations of ester.
as §1, §2, §3, §4, §5, §6, §7, §8, §9, §15
Reaction kinetics were studied using three reactant ligands as substrates for monoclonal receptors 37G2 and 22F5. Data from initial rates were consistent with Michaelis-Menten reaction mechanism for a usual enzyme-substrate system. Initial rates were followed using at 271 nm using a U.V.-visible spectorphotometer for Compound 17, and a fluorescence spectrometer for Compounds 5 and 20, using an excitation wavelength of 355 nm and an emission wavelength of 455 nm for both compounds.

13E10 = assay: Hydrolysis of reactant ligands by receptor 13E10; type: biochemical, mouse; design: key to hydrolysis by 13E10, symbol: --: No hydrolysis observed; settings: pH 8.0
Protocol: as §1, §2, §3, §4, §5, §6, §7, §8, §9, §10, §11, §12, §13, §14, §15, §16

44A2 = assay: Hydrolysis of reactant ligands by receptor 44A2; type: biochemical, mouse; design: key to hydrolysis by 44A2, symbol: --: No hydrolysis observed; settings: pH 8.0
Protocol: as §1, §2, §3, §4, §5, §6, §7, §8, §9, §10, §11, §12, §13, §14, §15, §16

22F5 = assay: Hydrolysis of reactant ligands by receptor 22F5; type: biochemical, mouse; design: key to hydrolysis by 22F5, symbol: --: No hydrolysis observed; settings: pH 8.0
Protocol: as §1, §2, §3, §4, §5, §6, §7, §8, §9, §10, §11, §12, §13, §14, §15, §16

7E5 = assay: Hydrolysis of reactant ligands by receptor 7E5; type: biochemical, mouse; design: key to hydrolysis by 7E5, symbol: --: No hydrolysis observed; settings: pH 8.0
Protocol: as §1, §2, §3, §4, §5, §6, §7, §8, §9, §10, §11, §12, §13, §14, §15, §16

17G8 = assay: Hydrolysis of reactant ligands by receptor 17G8; type: biochemical, mouse; design: key to hydrolysis by 17G8, symbol: --: No hydrolysis observed; settings: pH 8.0
Protocol: as §1, §2, §3, §4, §5, §6, §7, §8, §9, §10, §11, §12, §13, §14, §15, §16

[3] = 19: 2/5 uM, 21: 5/10 uM receptor/ligand
[4] = receptor/ligand uM, time h: 17 1/10, 2, 18 2/10, 24, 20 2/10, 0.33, 5 1/5, 0.33, 22 5/10, 3.5, preliminary

SMILES	receptors (of eight) that catalyzed hydrolysis of the compound [1]	hydrolysis by 1209, symbol 1209; [3]	hydrolysis by 21G2, symbol (21G2; [3])	hydrolysis by 37G2, symbol (37G2; [3])	Spon. (spontaneous hydrolysis), symbol ([2]; pH 8.0)	hydrolysis by 13E10, symbol (13E10; [3])	hydrolysis by 44A2, symbol (44A2; [3])	hydrolysis by 22F5, symbol (22F5; [3])	hydrolysis by 7E5, symbol (7E5; [3])	hydrolysis by 17G8, symbol (17G8; [3])	hydrolysis by 1209 1209; [4]	hydrolysis by 21G2 (21G2; [4])	hydrolysis by 37G2 (37G2; [4])	Spon. (spontaneous hydrolysis) ([2]; pH 8.0, 50 mM phosphate, time (h): 17 2, 18 24, 20 0.33, 5 0.33, 22 3.5)	hydrolysis by 13E10 (13E10; [4])	hydrolysis by 44A2 (44A2; [4])	hydrolysis by 22F5 (22F5; [4])	hydrolysis by 7E5 (7E5; [4])	hydrolysis by 17G8 (17G8; receptor/ligand uM, time h: 18 2/10, 24, 20 2/10, 0.33, 5 1/5, 0.33, 22 5/10, 3.5, preliminary)
CC(=O)Nc1ccc(CC(=O)Oc2cccc3ccc(C)nc23)cc1 [Compound 16]	failed to react	--	--	--	--	--	--	--	--	--									
CC(=O)Nc1ccc(CC(=O)Oc2ccccc2)cc1 [Compound 22]											12 percentage of reactant ligand	19 percentage of reactant ligand	45 percentage of reactant ligand	5 percentage of reactant ligand	14 percentage of reactant ligand	24 percentage of reactant ligand	26 percentage of reactant ligand	9 percentage of reactant ligand	22 percentage of reactant ligand
